Here are results for twelve compounds from PubChem BioAssay (NCI).

Common to all, as to test: NCI tumour cell line growth inhibition, 48 h
The test system of test [1] is BT-549 breast.
The subject of test [2] is HS 578T breast.
In test [3] the test system is MCF7 breast.
The subject of test [4] is MDA-MB-231 breast.
Test [5] has as its system MDA-MB-435.
Test [6] concerns PC-3 prostate.
Test [7] has as its system KM20L2 colon.
Test [8] has as its system M19-MEL melanoma.
For test [9], the system named is SNB-78 CNS.
Test [10] concerns DMS 273 small cell lung.

Each structure is given as a SMILES string.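 All cell lines were grown in 96-well plates and treated with compound for 48 hours. Abbreviation: GI50, concentration required for 50% inhibition of growth. TGI is the concentration that stops growth completely.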

Take `COc1cc2c(cc1OC)C(Sc1ccc(Cl)cc1)c1c(nc(N)c(C#N)c1N)O2` (centres undefined): the GI50 in [1] is 1.49 µM; in test [2], 1.98 µM; in [3], 0.564 µM; in test [4] it was 1.37 µM; in test [5], 1.42 µM; in test [6] it was 1.56 µM. Also, the TGI in test [1] came out at 2.83 µM; in test [2], 6.43 µM; in [3], 2.91 µM; in [4], 2.76 µM; in test [5], 2.85 µM; in test [6], 3.07 µM.

On to `COc1cc(OC)c(OC)cc1/C=C\c1ccnc2ccccc12`, for which the TGI in [1] was more than 100 µM; in test [2], 1.15 µM; in [7] it was 6.86 µM; in test [8], more than 100 µM; in test [3], more than 100 µM; in [4] it was 28.8 µM. In addition, the TGI in test [5] is 0.534 µM; in test [6], more than 100 µM; in test [9], more than 100 µM.

Consider `COc1ccc(-c2nc3sccn3c2/C=C/C(=O)c2cc(OC)c(OC)c(OC)c2)cc1`, for which the GI50 is 2.56 µM in [1]; 2.18 µM in test [2]; 1.85 µM in test [3]; 3.28 µM in [4]; 2.85 µM in test [5]; 2.97 µM in [6]. The TGI in [1] is more than 28.7 µM; in [2] it was more than 24.1 µM; in test [3], more than 100 µM; in [4], more than 100 µM; in [5], more than 100 µM; in [6], more than 38.7 µM.

Take `CN1CCC(C(=O)Nc2n[nH]c3nnc(-c4ccccc4)cc23)CC1`: the GI50 in [1] is more than 25 µM; in test [2], 16.5 µM; in test [3] it was 10.2 µM; in test [4], more than 25 µM; in [5], more than 25 µM; in test [6], more than 22.7 µM. The TGI in test [1], in test [2], in [3], in test [4], in test [5] and in test [6] was more than 25 µM throughout.

As for `COc1cc(C(=O)Nc2ccc(-c3nc4ccccc4[nH]3)cc2)cc(OC)c1OC`, the GI50 in test [1] was 12.7 µM; in [2] it was 3.54 µM; in test [3], 11.2 µM; in test [4], 9.38 µM; in [5], 13.5 µM; in test [6] it was 13.6 µM. The TGI came out at 29.2 µM in test [1]; 19.3 µM in test [2]; 30.6 µM in [3]; 24 µM in test [4]; 31 µM in test [5]; 34 µM in test [6].

For the compound `c1ccc(-c2nc3ccccc3[nH]2)c(OCCCCCOc2ccccc2-c2nc3ccccc3[nH]2)c1`, the GI50 in [1] is 13.5 µM; in test [2] it was 15.4 µM; in [3], 2.3 µM; in test [4], 12.2 µM; in test [5] it was 11.3 µM; in test [6], 7.64 µM. Also, the TGI in test [1] amounted to 33.3 µM; in [2] it was 41 µM; in test [3] it was 7.51 µM; in [4], 29.3 µM; in test [5], 29.3 µM; in [6] it was 96.8 µM.

For the compound `Cc1nc2sc(C(=O)Nc3cccc(Cl)c3)c(N)c2cc1C(O)c1ccccc1` (centres undefined), the GI50 in [1] was 6.13 µM; in [2] it was 0.351 µM; in test [3] it was 0.373 µM; in test [4], 2.52 µM; in [5] it was 0.203 µM; in test [6] it was 2.78 µM. Moreover, the TGI in test [1] came out at 35.6 µM; in test [2] it was 4.89 µM; in [3] it was 16.9 µM; in test [4], 16.9 µM; in test [5], 0.465 µM; in test [6], 25.1 µM.

Consider `CC(C)OC(=O)c1cc(NC(=S)OC(C)C)ccc1Cl`, for which the TGI is 33.5 µM in test [1]; more than 79.8 µM in [2]; more than 53 µM in test [3]; 30.4 µM in [4]; 31.4 µM in test [5]; 50.9 µM in test [6].

Turning to `CCCCCCCC(=O)OC[n+]1cccc(-c2c(COC(=O)NC(C)C)c(COC(=O)NC(C)C)c3n2CCC3)c1`, the TGI in test [1], in test [2], in test [3], in test [4], in test [5] and in test [6] was more than 100 µM in each case.

As to `Cc1cn([C@H]2CN(O)C[C@@H](CO)O2)c(=O)[nH]c1=O`, the TGI in [1], in test [2], in test [3], in test [4], in test [5] and in test [6] was more than 100 µM in each case.

In the case of `COc1cc(C(=O)/C=C/c2c(C)n([O-])c3ccc(Cl)cc3[n+]2=O)cc(OC)c1OC`, the GI50 in [1] is 11 µM; in test [2] it was 1.75 µM; in [3], 3.37 µM; in test [4], 12.9 µM; in [5] it was 3.4 µM; in test [6], 26.9 µM. Besides, the TGI in [1] is more than 100 µM; in [2], 8.97 µM; in test [3], more than 100 µM; in test [4], more than 100 µM; in [5], more than 100 µM; in [6], more than 100 µM.

`COC(=O)C1C(=O)NC2(C)CC1c1ccccc1O2` (centres undefined): the TGI in [10], in test [8] and in test [9] was more than 100 µM throughout.
